# Data: ChEMBL document CHEMBL5604062, “ASAP - ZIKV NS2B-NS3 protease fluorescence dose response” (2024)
# Where “and” joins values, the source holds several entries; their conditions need not be identical. Equal entries are not always repeated.
# Columns and labels:
# Nonstructural protein 3 [1] = target: T1, Nonstructural protein 3 (Zika virus, UniProt A0A024AXB9); test: (§1) Functional biochemical assay to identify treatments for viral infectious disease that targets Zika NS2B-NS3 protease. Utilizing a direct enzyme activity measurement method, reading the fluorescence intensity is used to characterize the relative potency of inhibitors as IC50. Synthetic construct has been made based on Zika virus (strain PRVABC59) by Centre for Medicines Discovery, University of Oxford, and the assay has been performed by Stanford University.The protocol is publicly available: dx.doi.org/10.17504/protocols.io.x54v9r83zv3e/v1
# T1 sequence (A0A024AXB9 whole entry): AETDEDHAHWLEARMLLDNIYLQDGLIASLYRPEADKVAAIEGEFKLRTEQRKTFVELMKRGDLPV
# Nonstructural protein 3 [2] = target: T1, Nonstructural protein 3; test: Functional biochemical assay to identify treatments for viral infectious disease that targets Zika NS2B-NS3 protease. Utilizing a direct enzyme activity measurement method, reading the fluorescence intensity is used to characterize the relative potency of inhibitors as IC50.; design: species or system PRVABC59
# Nonstructural protein 3 [3] = target: T1, Nonstructural protein 3; test: as §1, with “Enamine biological services, Bienta Ltd.The” for “Stanford University.The”, “dx.doi.org/10.17504/protocols.io.36wgqn273gk5/v1” for “dx.doi.org/10.17504/protocols.io.x54v9r83zv3e/v1”
smiles,measurement,setting,value
O=Cc1ccc(N2CCC(C(=O)O)CC2)cc1,IC50,Nonstructural protein 3 [1],53.7 µM
CC[C@H]1CO[C@H](C)CN1c1ccc(C=O)cn1,IC50,Nonstructural protein 3 [1],43 µM
O=Cc1ccc(N2CCCCC2)cc1,IC50,Nonstructural protein 3 [1],49.8 µM
O=Cc1ccc(N2CCC(C(=O)O)CC2)o1,IC50,Nonstructural protein 3 [1],30.4 µM
O=Cc1ccc(N2CCCCCC2)cc1,IC50,Nonstructural protein 3 [1],65.8 µM
CN(C)c1ccc(C=C(C#N)C(N)=O)cc1,IC50,Nonstructural protein 3 [1],31 µM
Nc1ccc2ccc(B(O)O)cc2c1,IC50,Nonstructural protein 3 [1],2.5 µM
same,IC50,Nonstructural protein 3 [2],> 99500 nM
CC(C)(C)NC(=O)C[C@H]1NCc2cc(NC(=O)c3cc(Cl)cc4[nH]ncc34)ccc21,IC50,Nonstructural protein 3 [3],1070 nM and 985 nM
same,IC50,Nonstructural protein 3 [2],167 nM
Nc1ccncc1-c1cc(F)cc(C(=O)Nc2ccc3c(c2)CNC3)c1,IC50,Nonstructural protein 3 [3],146 nM
same,IC50,Nonstructural protein 3 [2],54 nM and 38 nM
NCc1cccc(NC(=O)c2cccc3c2CC(=O)N3)c1,IC50,Nonstructural protein 3 [3],2320 nM
same,IC50,Nonstructural protein 3 [2],1540 nM
Cc1c(C(=O)Nc2ccc3c(c2)C[C@H](C(N)=O)O3)cc(C2CC2)n1C,IC50,Nonstructural protein 3 [3],> 25000 nM
same,IC50,Nonstructural protein 3 [2],> 25000 nM
Cc1c(C(=O)Nc2cc(C3CCOCC3)ccn2)cc(C2CC2)n1C,IC50,Nonstructural protein 3 [3],> 25000 nM
same,IC50,Nonstructural protein 3 [2],> 25000 nM
Cc1c(C(=O)Nc2ccc3c(c2)CCC(=O)N3CC2CCC2)cc(C2CC2)n1C,IC50,Nonstructural protein 3 [3],> 25000 nM
same,IC50,Nonstructural protein 3 [2],> 25000 nM
O=C(Nc1ccc2c(c1)CNC2)c1cccc2c(C3CNC3)n[nH]c12,IC50,Nonstructural protein 3 [3],89 nM
same,IC50,Nonstructural protein 3 [2],17 nM and 16 nM and < 12 nM
Cc1c(C(=O)Nc2cccc(CN3CCCC3=O)c2)cc(C2CC2)n1C,IC50,Nonstructural protein 3 [3],> 25000 nM
same,IC50,Nonstructural protein 3 [2],> 25000 nM
Cc1c(C=O)c2ccccn2c1C(=O)c1ccncc1,IC50,Nonstructural protein 3 [1],36.4 µM
Cc1c(C(=O)Nc2ccc3c(c2)CN(C)C3=O)cc(C2CC2)n1C,IC50,Nonstructural protein 3 [3],> 25000 nM
same,IC50,Nonstructural protein 3 [2],> 25000 nM
Cn1nc(CNc2cc([C@H]3CCOC3)ccn2)cc1C1CC1,IC50,Nonstructural protein 3 [3],> 25000 nM
same,IC50,Nonstructural protein 3 [2],> 25000 nM
Cc1c(C=O)c2ccccn2c1C#N,IC50,Nonstructural protein 3 [1],24.9 µM
Cc1nc(C=O)c2ccccn12,IC50,Nonstructural protein 3 [1],64.5 µM
CNC(=O)C[C@H]1NCc2cc(NC(=O)c3cc(Cl)cc4[nH]ncc34)ccc21,IC50,Nonstructural protein 3 [3],999 nM and 1080 nM
same,IC50,Nonstructural protein 3 [2],187 nM
COc1ccc(-c2nc3c(C(=O)Nc4ccc5c(c4)CNC5)cc(F)cc3[nH]2)nn1,IC50,Nonstructural protein 3 [3],90 nM and 98 nM
same,IC50,Nonstructural protein 3 [2],23 nM (2×) and 14 nM and 27 nM
CC(C)NC(=O)C[C@H]1NCc2cc(NC(=O)c3cc(Cl)cc4[nH]ncc34)ccc21,IC50,Nonstructural protein 3 [3],1060 nM and 2300 nM
same,IC50,Nonstructural protein 3 [2],185 nM
O=C(Nc1ccc2c(c1)CN[C@H]2C(=O)O)c1cc(F)cc2[nH]ncc12,IC50,Nonstructural protein 3 [3],3180 nM and 3280 nM
same,IC50,Nonstructural protein 3 [2],1330 nM
O=C(Nc1ccc2c(c1)CN[C@H]2C1CC1)c1cc(F)cc2[nH]ncc12,IC50,Nonstructural protein 3 [3],255 nM and 550 nM
same,IC50,Nonstructural protein 3 [2],215 nM
O=Cc1nc(-c2ccccc2Cl)n2ccccc12,IC50,Nonstructural protein 3 [1],46.3 µM
Cc1cc(NS(=O)(=O)c2ccc(S(=O)(=O)F)cc2)c[nH]c1=O,IC50,Nonstructural protein 3 [1],13.1 µM
N=C(N)NCCC[C@H](NC(=O)[C@H](Cc1ccc(CN)cc1)NC(=O)c1ccccc1)B(O)O,IC50,Nonstructural protein 3 [3],559 nM and 327 nM and 558 nM and 628 nM and 585 nM and 637 nM and 438 nM and 552 nM and 595 nM
same,IC50,Nonstructural protein 3 [2],508 nM and 353 nM and 260 nM and 186 nM and 245 nM and 211 nM (2×) and 238 nM and < 2.49 µM (9×) and 73 nM and 247 nM and 292 nM and 237 nM and 241 nM and 141 nM and 262 nM and 254 nM and 233 nM
N[C@H]1Cc2ccc(NC(=O)c3cccc4c3CC(=O)N4)cc2C1,IC50,Nonstructural protein 3 [3],7500 nM
same,IC50,Nonstructural protein 3 [2],2770 nM
O=C(NCC(F)F)[C@H](Nc1ccc2c(c1)CNC2)c1cc(Cl)cc2cccnc12,IC50,Nonstructural protein 3 [3],53 nM and 76 nM
same,IC50,Nonstructural protein 3 [2],16 nM
NCc1csc2cc(C(=O)Nc3ccc4c(c3)CNC4)ccc12,IC50,Nonstructural protein 3 [3],216 nM
same,IC50,Nonstructural protein 3 [2],125 nM and 219 nM
O=C1C[C@H](c2cccc(-c3cc(F)cc(C(=O)Nc4ccc5c(c4)CNC5)c3)c2)N1,IC50,Nonstructural protein 3 [3],130 nM and 131 nM
same,IC50,Nonstructural protein 3 [2],77 nM and 66 nM
